According to the supplement of paper PMC12592484:

Legend:
Test in all cases: drug sensitivity score (DSS2, normalised partial AUC of dose-response, 72 h CellTiter-Glo viability) (DSS (dimensionless)); higher = more sensitive (stronger growth inhibition / cytotoxicity); extreme values may be limits of the assay
CAF#7 = test system: CAF#7 (primary prostate cancer-associated fibroblasts of myCAF-like type)
Outline: (§1)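 Low-passage primary prostate cancer-associated fibroblasts, PF179T, WPMY-1, LNCaP and 22Rv1 cells were seeded into 384-well plates carrying pre-dispensed compounds at five doses covering a 10,000-fold range. After 72 h, viability was read by CellTiter-Glo 2.0 luminescence. Responses were scaled to vehicle and positive-control wells. The drug sensitivity score (DSS2) is a partial area under the fitted logistic dose–response curve divided by the log of its upper asymptote, computed in BREEZE; higher means more sensitive.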

CAF#5 = test system: CAF#5 (primary prostate cancer-associated fibroblasts of myCAF-like type)
Outline: as §1

CAF#1 = test system: CAF#1 (primary prostate cancer-associated fibroblasts of myCAF-like type)
Outline: as §1

CAF#3 = test system: CAF#3 (primary prostate cancer-associated fibroblasts of myCAF-like type)
Outline: as §1

WPMY-1 = test system: WPMY-1
Outline: as §1

PF179T = test system: PF179T
Outline: as §1

CAF#4 = test system: CAF#4 (primary prostate cancer-associated fibroblasts of iCAF-like type)
Outline: as §1

22Rv1 = test system: 22Rv1
Outline: as §1

LNCAP = test system: LNCAP
Outline: as §1

CAF#6 = test system: CAF#6 (primary prostate cancer-associated fibroblasts of iCAF-like type)
Outline: as §1

CAF#2 = test system: CAF#2 (primary prostate cancer-associated fibroblasts of iCAF-like type)
Outline: as §1

Row | Compound | drug sensitivity score (CAF#7) | drug sensitivity score (CAF#5) | drug sensitivity score (CAF#1) | drug sensitivity score (CAF#3) | drug sensitivity score (WPMY-1) | drug sensitivity score (PF179T) | drug sensitivity score (CAF#4) | drug sensitivity score (22Rv1) | drug sensitivity score (LNCAP) | drug sensitivity score (CAF#6) | drug sensitivity score (CAF#2)
1 | C/C=C1\NC(=O)[C@H]2CSSCC/C=C/[C@H](CC(=O)N[C@H](C(C)C)C(=O)N2)OC(=O)[C@H](C(C)C)NC1=O [Romidepsin] (tested concentration range 0.1-1000 nM) | 24.4 | 25 | 23.1 | 23.1 | 30 | 22.5 | 21.4 | 27.9 | 35.5 | 26.6 | 23.4
2 | Cc1nc(C(=O)NCC(=O)O)c(O)c2ccc(Oc3ccccc3)cc12 [Roxadustat] (tested concentration range 1-10000 nM) | 0 | 0.2 | 0 | 0 | 0 | 0 | 0 | 0 | 0 | 0 | 0
3 | CN(C)C[C@@H]1CCn2cc(c3ccccc32)C2=C(C(=O)NC2=O)c2cn(c3ccccc23)CCO1 [Ruboxistaurin] (tested concentration range 1-10000 nM) | 5.9 | 6.8 | 8.4 | 8.9 | 8.4 | 8.4 | 8.4 | 9.6 | 8.2 | 6.8 | 6.6
4 | CNCc1ccc(-c2[nH]c3cc(F)cc4c3c2CCNC4=O)cc1 [Rucaparib] (tested concentration range 1-10000 nM) | 2.9 | 0 | 0.8 | 0 | 1.8 | 3.7 | 3.8 | 4.6 | 4.8 | 0.5 | 2.3
5 | N#CC[C@H](C1CCCC1)n1cc(-c2ncnc3[nH]ccc23)cn1 [Ruxolitinib] (tested concentration range 1-10000 nM) | 0 | 1.3 | 0 | 0 | 0.6 | 0 | 0 | 0 | 1.5 | 0 | 0.8
6 | CC(C)N(CCCNC(=O)Nc1ccc(C(C)(C)C)cc1)C[C@H]1O[C@@H](n2cc(Br)c3c(N)ncnc32)[C@H](O)[C@@H]1O [SGC0946] (tested concentration range 1-10000 nM) | 1.2 | 0 | 0.2 | 0.5 | 2.2 | 0 | 0.8 | 1.6 | 2.1 | 0.1 | 0
7 | COc1ccc(CCc2nc3cc(-c4c(C)noc4C)ccc3n2C[C@H](C)N2CCOCC2)cc1Cl [SGC-CBP30] (tested concentration range 2.5-25000 nM) | 1.2 | 0.8 | 1.6 | 5.4 | 7.4 | 0.1 | 1.3 | 6.2 | 8.5 | 2.2 | 1.5
8 | CN(CC(=O)N(Cc1ccc(C2CCCCC2)cc1)c1ccc(C(=O)O)cc1)S(=O)(=O)c1c(F)c(F)c(F)c(F)c1F [SH-4-54] (tested concentration range 2.5-25000 nM) | 4.6 | 6 | 6.3 | 5.4 | 6.5 | 5.5 | 5.6 | 8.4 | 6 | 7.2 | 6.3
9 | CCc1c2c(nc3ccc(O)cc13)-c1cc3c(c(=O)n1C2)COC(=O)[C@]3(O)CC [SN-38] (tested concentration range 1-10000 nM) | 11.8 | 14.3 | 20.3 | 7.1 | 35 | 19.7 | 20.3 | 39.3 | 34.8 | 8.7 | 25.5
10 | CC[C@@H](C(=O)[C@@H](C)[C@@H](O)[C@H](C)[C@@H]1O[C@@H]([C@@H](CC)C(=O)O)CC[C@@H]1C)[C@H]1O[C@]2(C=C[C@@H](O)[C@]3(CC[C@@](C)([C@H]4CC[C@](O)(CC)[C@H](C)O4)O3)O2)[C@H](C)C[C@@H]1C [Salinomycin] (tested concentration range 5-50000 nM) | 18.5 | 23.6 | 26.8 | 9.4 | 28.8 | 19.1 | 25.2 | 26.4 | 29.1 | 21.2 | 26.5
11 | CC(C)n1nc(-c2ccc3oc(N)nc3c2)c2c(N)ncnc21 [Sapanisertib] (tested concentration range 0.1-1000 nM) | 13.2 | 19.1 | 20.2 | 14.3 | 13.7 | 18 | 17.8 | 21.2 | 20 | 14.6 | 14
12 | CN1CCN(CCOc2cc(OC3CCOCC3)c3c(Nc4c(Cl)ccc5c4OCO5)ncnc3c2)CC1 [Saracatinib] (tested concentration range 1-10000 nM) | 5.8 | 8.2 | 7.7 | 10.1 | 5.4 | 5.5 | 6.7 | 4.3 | 6.4 | 6.6 | 7.7
13 | CC[C@H](CO)Nc1nc(NCc2ccccc2)c2ncn(C(C)C)c2n1 [Seliciclib] (tested concentration range 1-10000 nM) | 2.3 | 2 | 1.7 | 1.4 | 0.6 | 0 | 1.4 | 0.2 | 4.3 | 1.1 | 1.1
14 | O=C(/C=C\n1cnc(-c2cc(C(F)(F)F)cc(C(F)(F)F)c2)n1)NNc1cnccn1 [Selinexor] (tested concentration range 1-10000 nM) | 11.9 | 14.6 | 16.5 | 9.9 | 27.4 | 16.4 | 17.8 | 30.5 | 26.2 | 11.7 | 21.3
15 | Cc1cc(F)c(C(=O)Nc2cccc(-c3nncn3C(C)C)n2)cc1-n1cnc(C2CC2)c1 [Selonsertib] (tested concentration range 0.1-1000 nM) | 0 | 0 | 0 | 0 | 0 | 0 | 0 | 0 | 1.4 | 0 | 0
16 | Cn1cnc2c(F)c(Nc3ccc(Br)cc3Cl)c(C(=O)NOCCO)cc21 [Selumetinib] (tested concentration range 1-10000 nM) | 2.6 | 1.6 | 1.2 | 0 | 4.3 | 2.5 | 2.5 | 14.4 | 0 | 1.1 | 4.5
17 | Nc1nc2cc(-c3ccc4ncc(C(=O)N5CCOCC5)n4c3)ccc2o1 [Serabelisib] (tested concentration range 1-10000 nM) | 3.4 | 5.7 | 3.2 | 4.2 | 1.2 | 2.8 | 2.1 | 5.2 | 2.3 | 4.5 | 4.3
18 | O=C(O)c1ccc2c(c1)nc(Nc1cccc(Cl)c1)c1ccncc12 [Silmitasertib] (tested concentration range 1-10000 nM) | 1.5 | 4.6 | 5.4 | 0.7 | 5.1 | 2.5 | 2.2 | 6 | 3.9 | 0.6 | 4
19 | CO[C@H]1C[C@@H]2CC[C@@H](C)[C@@](O)(O2)C(=O)C(=O)N2CCCC[C@H]2C(=O)O[C@H]([C@H](C)C[C@@H]2CC[C@@H](O)[C@H](OC)C2)CC(=O)[C@H](C)/C=C(\C)[C@@H](O)[C@@H](OC)C(=O)[C@H](C)C[C@H](C)/C=C/C=C/C=C/1C [Sirolimus] (tested concentration range 0-100 nM) | 3.7 | 7.4 | 6.5 | 2.2 | 4 | 5.6 | 4.9 | 9.3 | 2.5 | 3.4 | 6.8
20 | COCCNCc1ccc(-c2cc3nccc(Oc4ccc(NC(=O)C5(C(=O)Nc6ccc(F)cc6)CC5)cc4F)c3s2)nc1 [Sitravatinib] (tested concentration range 0.2-2500 nM) | 5.7 | 6.6 | 5.5 | 4.5 | 5.9 | 6.7 | 6.6 | 4.7 | 2.1 | 3.4 | 9.7
21 | Cc1c(C(=O)Nc2ccc(N3C[C@@H](C)O[C@@H](C)C3)nc2)cccc1-c1ccc(OC(F)(F)F)cc1 [Sonidegib] (tested concentration range 1-10000 nM) | 0 | 1.5 | 0 | 0 | 0 | 0 | 3.2 | 2.2 | 4.9 | 0 | 1.7
22 | CNC(=O)c1cc(Oc2ccc(NC(=O)Nc3ccc(Cl)c(C(F)(F)F)c3)cc2)ccn1 [Sorafenib] (tested concentration range 0.1-1000 nM) | 0 | 0 | 0 | 2.6 | 0 | 0 | 1.2 | 0 | 0 | 0 | 0
